molecular target: T1, N-lysine methyltransferase KMT5A (Homo sapiens, UniProt Q9NQR1); experiment: Inhibition of SETD8 in HEK293T cells assessed as reduction in H4K20me level after 2 to 3 days by Western blot analysis; type: cell-based
T1 sequence (Q9NQR1 whole entry): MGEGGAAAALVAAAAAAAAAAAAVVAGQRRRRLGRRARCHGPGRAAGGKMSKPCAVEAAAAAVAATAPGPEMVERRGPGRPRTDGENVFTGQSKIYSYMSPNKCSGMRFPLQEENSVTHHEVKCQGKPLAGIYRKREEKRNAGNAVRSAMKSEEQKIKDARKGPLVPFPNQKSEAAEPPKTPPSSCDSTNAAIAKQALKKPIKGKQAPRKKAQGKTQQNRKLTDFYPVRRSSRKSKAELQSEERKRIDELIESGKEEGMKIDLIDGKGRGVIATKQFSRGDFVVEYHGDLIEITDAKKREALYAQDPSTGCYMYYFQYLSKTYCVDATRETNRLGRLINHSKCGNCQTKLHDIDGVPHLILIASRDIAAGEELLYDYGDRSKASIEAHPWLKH

SMILES	EC50 [µM]
Cc1ccc(/N=C2\CC(=O)c3sc(C)nc3C2=O)cc1	< 1
CC1(C)C(=O)N=C2C1=C(O)C(=O)c1ccccc12	< 5
O=C1C(Cl)=C(NCCN2CCOCC2)C(=O)c2ncccc21	< 5

— ChEMBL document CHEMBL4477270, “Design, synthesis, and protein methyltransferase activity of a unique set of constrained amine containing compounds” (Bioorg Med Chem Lett, 2016)
